Source: US7041785B1, “B1-bradykinin receptor antagonists and use thereof” (Université de Sherbrooke, priority 1996, dated 2006)

What was measured:
[1] = system: streptozotocin-induced diabetic mice; settings: mouse, in vivo
Experimental: Male C57BL/Ks mdb mice were injected with streptozotocin (40 mg/kg) for 5 consecutive days. […] Treatment with antagonists was started 3 days after STZ and lasted for 10 days. Plasma glucose was determined by the glucose oxidase method, and 13 days urinary samples were assayed for proteins, nitrites and kallikreins.
Male C57BL/Ksmdb mice, 3 month old were provided by National Institute of Genetic, Buenos Aires. The animals were housed at a constant room temperature, with a 12 h light-dark cycle.
Blood (50–60 ul) was collected from the tail vein of non fasting animals in heparinized capillary tubes. Blood samples were taken one day before starting the STZ injection and at the day 13, just before sacrifice. Blood samples were centrifuged and the plasma immediately diluted into the appropriate buffer. Plasma glucose was determined by a glucose oxidase method (the kit was obtained from Wiener, Argentina). […] Urinary volume was determined gravimetrically and urinary samples were assayed for proteins^45, nitrites^40 and kallikrein^47.
Streptozotocin was purchased from the Sigma Chem Co., St. Louis, Mo. […] The paranitroanilide (pNA) released by enzymatic action on the substrate was measured calorimetrically to determine kallikrein activity
All data were expressed as mean=S.E. Analysis of Variance (ANOVA) was performed to evaluate differences among the groups. p<0.05 was considered as significant.

[2] = target: T1, angiotensin-converting enzyme (ACE) from rabbit lungs (Oryctolagus cuniculus, UniProt P12822); settings: cited from earlier work
T1 sequence (P12822 34-1310): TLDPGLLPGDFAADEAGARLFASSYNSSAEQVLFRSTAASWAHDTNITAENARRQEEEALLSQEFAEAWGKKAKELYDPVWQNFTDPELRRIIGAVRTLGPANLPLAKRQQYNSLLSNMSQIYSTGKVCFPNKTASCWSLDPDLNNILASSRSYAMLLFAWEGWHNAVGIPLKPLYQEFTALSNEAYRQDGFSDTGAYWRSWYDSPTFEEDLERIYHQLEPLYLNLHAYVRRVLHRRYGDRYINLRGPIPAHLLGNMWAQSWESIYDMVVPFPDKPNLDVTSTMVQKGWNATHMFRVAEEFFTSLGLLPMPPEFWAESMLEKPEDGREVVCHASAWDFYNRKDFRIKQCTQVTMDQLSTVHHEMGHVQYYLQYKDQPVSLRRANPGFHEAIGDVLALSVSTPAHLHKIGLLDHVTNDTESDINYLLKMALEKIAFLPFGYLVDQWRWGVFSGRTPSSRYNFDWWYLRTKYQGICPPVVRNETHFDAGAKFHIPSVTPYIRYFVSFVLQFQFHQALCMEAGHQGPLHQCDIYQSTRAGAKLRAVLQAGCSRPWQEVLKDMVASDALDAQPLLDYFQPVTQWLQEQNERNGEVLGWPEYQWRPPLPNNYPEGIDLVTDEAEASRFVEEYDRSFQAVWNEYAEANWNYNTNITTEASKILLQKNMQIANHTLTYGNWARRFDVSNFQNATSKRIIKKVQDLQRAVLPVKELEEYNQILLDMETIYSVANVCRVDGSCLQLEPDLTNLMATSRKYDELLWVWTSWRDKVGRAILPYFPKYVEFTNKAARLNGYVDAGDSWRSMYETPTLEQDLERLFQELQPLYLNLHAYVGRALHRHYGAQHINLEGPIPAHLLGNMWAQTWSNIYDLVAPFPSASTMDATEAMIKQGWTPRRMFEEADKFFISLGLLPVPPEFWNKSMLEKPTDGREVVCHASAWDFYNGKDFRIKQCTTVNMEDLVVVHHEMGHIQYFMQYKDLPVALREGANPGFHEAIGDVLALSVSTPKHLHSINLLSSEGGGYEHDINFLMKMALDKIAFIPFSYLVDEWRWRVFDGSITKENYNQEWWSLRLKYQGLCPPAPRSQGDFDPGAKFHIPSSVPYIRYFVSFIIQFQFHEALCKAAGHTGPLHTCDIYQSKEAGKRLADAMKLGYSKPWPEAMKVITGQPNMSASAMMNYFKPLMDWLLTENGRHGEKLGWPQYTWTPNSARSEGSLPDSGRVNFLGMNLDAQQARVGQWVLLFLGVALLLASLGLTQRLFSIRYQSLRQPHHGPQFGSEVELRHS

BK-B1 receptor = target: T2, BK-B1 receptor (Rattus norvegicus, UniProt P97583); assay: Isometric contraction of portal vein segments from STZ-induced diabetic rats; assay type: cell-based; settings: P<0.001
T2 construct: Segments of the portal vein (a known preparation for BK studies) from these rats were mounted in organ baths; from tissue; host or cells: rat portal vein segments (STZ-diabetic and normal rats)
T2 sequence (P97583 1-337): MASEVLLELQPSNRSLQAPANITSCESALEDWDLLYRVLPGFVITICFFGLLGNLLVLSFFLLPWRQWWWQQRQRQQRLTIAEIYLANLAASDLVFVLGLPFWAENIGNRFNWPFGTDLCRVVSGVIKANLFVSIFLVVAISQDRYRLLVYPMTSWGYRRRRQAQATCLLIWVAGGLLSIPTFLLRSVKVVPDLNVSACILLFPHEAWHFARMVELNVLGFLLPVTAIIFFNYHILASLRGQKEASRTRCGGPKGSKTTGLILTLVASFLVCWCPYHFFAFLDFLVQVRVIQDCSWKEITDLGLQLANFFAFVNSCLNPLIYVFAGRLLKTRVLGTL
Excerpt: Capillary permeability is known to be selectively augmented in the streptozotocin (STZ) diabetic rat model^49. The vascular BK receptors in the STZ-induced diabetic rat was examined. Segments of the portal vein (a known preparation for BK studies) from these rats were mounted in organ baths for isometric contraction studies. The response to desArg^9BK, a specific BK–B1 receptor agonist, was enhanced by 118% in the diabetic tissue, compared to normal portal veins (0.48 vs 0.22g: P<0.001). […] HOE140, the BK–B2 receptor antagonist, had no effect on the diabetic portal vein abnormality. Evans blue (EB: 20 mg/kg), a marker of albumin extravasation, was injected to unanesthetized diabetic rats. […] Therefore, it was concluded that post-capillary hypercontractility to BK (via its B1 receptor) forces EB extravasation, and likely contributed to the diabetic vasculopathy.

## NC(N)=NCCC[C@@H](N)C(=O)N[C@@H](CCCN=C(N)N)C(=O)N1CCC[C@H]1C(=O)N1C[C@H](O)C[C@H]1C(=O)NCC(=O)N[C@@H](Cc1cccs1)C(=O)N[C@@H](CO)C(=O)N1Cc2ccccc2C[C@@H]1C(=O)N1[C@H](C(=O)N[C@@H](CCCN=C(N)N)C(=O)O)C[C@@H]2CCCC[C@@H]21 [HOE140, D-Arg(Hyp^3, Thi^5, D-Tic^7, Oic^8)BK]
[1]
  Body weight: No changes of body weight

## N=C(N)NCCC[C@H](N)C(=O)N1CCC[C@H]1C(=O)N1CCC[C@H]1C(=O)NCC(=O)N[C@@H](Cc1ccccc1)C(=O)N[C@@H](CO)C(=O)N1CCC[C@H]1C(=O)N[C@@H](Cc1ccccc1)C(=O)O [desArg^9BK, Arg-Pro-Pro-G1y-Phe-Ser-Pro-Phe]
[2]
  Metabolism of naturally-occurring kinins by ACE: fully metabolised
BK-B1 receptor
  Enhancement of response in diabetic tissue compared to normal portal veins: 118%
